# Results taken from patent publication US4068074A, “Cephalosporin derivatives having at the 3-position of the cephem ring a heterocyclic thiomethyl group with a carboxy or sulfo group and at the 7-position of the cephem ring an α-heterocylic acylaminophenyl-acetamide group” (priority 1974, dated 1978).
# Like-named read-outs stand apart in the source and are kept apart here.
# Legend:
# [1] = system: Salmonella typhi H901 W; assay: MIC against bacteria (Table I), strain (9); assay type: cell-based; settings: Salmonella enterica, TYPHI
# Excerpt: (§1) Now, for illustrating the excellent pharmacological effects of the compounds of this invention, the values of MIC (γ/ml.) of the compounds against various bacteria are shown in Table 1, in which the compounds of this invention used are shown by example numbers.
# (9) Salmonella typhi H901 W
# [2] = system: Pseudomonas aeruginosa 99 (Gentamycin resistant); assay: MIC against bacteria (Table I), strain (5); assay type: cell-based; settings: (5) Pseudomonas aeruginosa 99 (Gentamycin resistant); read-out: MIC
# Excerpt: as §1
# (5) Pseudomonas aeruginosa 99 (Gentamycin resistant)
# [3] = system: Bacillus subtilis ATCC 6633; assay: MIC against bacteria (Table I), strain (14); assay type: cell-based; settings: ATCC6633; (14) Bacillus subtilis ATCC 6633; read-out: MIC
# Excerpt: as §1
# (14) Bacillus subtilis ATCC 6633
# [4] = system: Micrococcus flavus ATCC 10240; assay: MIC against bacteria (Table I), strain (15); assay type: cell-based; settings: ATCC10240; (15) Micrococcus flavus ATCC 10240; read-out: MIC
# Excerpt: as §1
# (15) Micrococcus flavus ATCC 10240
# [5] = system: Proteus vulgaris OXK US; assay: MIC against bacteria (Table I), strain (1); assay type: cell-based; settings: (1) Proteus vulgaris OXK US; read-out: MIC
# Excerpt: as §1
# (1) Proteus vulgaris OXK US
# [6] = system: Staphylococcus aureus 209P; assay: MIC against bacteria (Table I), strain (16); assay type: cell-based
# Excerpt: as §1
# (16) Staphylococcus aureus 209P
# [7] = system: Proteus vulgaris 0X 19US; assay: MIC against bacteria (Table I), strain (2); assay type: cell-based; settings: 0X19US
# Excerpt: as §1
# (2) Proteus vulgaris 0X 19US
# [8] = system: Staphylococcus Onuma; assay: MIC against bacteria (Table I), strain (18); assay type: cell-based
# Excerpt: as §1
# (18) Staphylococcus Onuma
# [9] = system: Bacillus megatherium 10778; assay: MIC against bacteria (Table I), strain (13); assay type: cell-based; settings: (13) Bacillus megatherium 10778; read-out: MIC
# Excerpt: as §1
# [10] = system: Psuedomonas ovalis IMA 1002; assay: MIC against bacteria (Table I), strain (6); assay type: cell-based; settings: (6) Psuedomonas ovalis IMA 1002; read-out: MIC
# Excerpt: as §1
# (6) Psuedomonas ovalis IMA 1002
# [11] = system: Shigella sonnei II 37148; assay: MIC against bacteria (Table I), strain (12); assay type: cell-based; settings: II37148
# Excerpt: as §1
# [12] = system: Pseudomonas aeruginosa ATCC 8689; assay: MIC against bacteria (Table I), strain (4); assay type: cell-based; settings: ATCC8689; (4) Pseudomonas aeruginosa ATCC 8689; read-out: MIC
# Excerpt: as §1
# (4) Pseudomonas aeruginosa ATCC 8689
# [13] = system: Klebsiella pneumoniae ATCC 10031; assay: MIC against bacteria (Table I), strain (8); assay type: cell-based; settings: ATCC10031
# Excerpt: as §1
# (8) Klebsiella pneumoniae ATCC 10031
# [14] = system: Salmonella enteritidis; assay: MIC against bacteria (Table I), strain (10); assay type: cell-based; settings: Salmonella enterica
# Excerpt: as §1
# (10) Salmonella enteritidis
# [15] = system: Staphylococcus Shimanishi; assay: MIC against bacteria (Table I), strain (17); assay type: cell-based; settings: (17) Staphylococcus Shimanishi; read-out: MIC
# Excerpt: as §1
# (17) Staphylococcus Shimanishi
# [16] = system: Escherichia coli kauffmann 0-1; assay: MIC against bacteria (Table I), strain (7); assay type: cell-based
# Excerpt: as §1
# (7) Escherichia coli kauffmann 0-1
# [17] = system: Proteus mirabilis IXM OM-19; assay: MIC against bacteria (Table I), strain (3); assay type: cell-based; settings: IXMOM19; (3) Proteus mirabilis IXM OM-19; read-out: MIC
# Excerpt: as §1
# (3) Proteus mirabilis IXM OM-19
# [18] = system: Shigella flexneri 2a 1675; assay: MIC against bacteria (Table I), strain (11); assay type: cell-based; settings: 2A1675
# Excerpt: as §1
# [19] = Residual antibacterial activity after incubation with 10% liver homogenate (Table 4); assay type: in vitro ADME, male Sprague-Dowley rat; settings: 10% rat liver homogenate
# Procedure: (§2) The relation between the reaction period of time and the antibacterial activity (residual activity, %) when these compounds are incubated with the plasma and the liver homogenate of a male Sprague-Dowley rat is shown in Table 4. The residual antibacterial activity was measured by a thin-layer cup method according to Bacillus subtilis ATCC 6633.
# B*Residual activity (%) when incubated with 10% liver homogenate.
# [20] = Residual antibacterial activity after incubation with 90% plasma (Table 4); assay type: in vitro ADME, male Sprague-Dowley rat; settings: 90% rat plasma
# Procedure: as §2
# A*Residual activity (%) when incubated with 90% plasma.
# [21] = (16) Staphylococcus aureus 209P, read-out: MIC
# [22] = (2) Proteus vulgaris 0X 19US, read-out: MIC
# [23] = (18) Staphylococcus Onuma, read-out: MIC
# [24] = (8) Klebsiella pneumoniae ATCC 10031, read-out: MIC
# [25] = (10) Salmonella enteritidis, read-out: MIC
# [26] = (12) Shigella sonnei II 37148, read-out: MIC
# [27] = (11) Shigella flexneri 2a 1675, read-out: MIC
Structure (SMILES),MIC [1],MIC [2],MIC [3],MIC [4],MIC [5],"MIC [6, 21]","MIC [7, 22]","MIC [8, 23]",MIC [9],MIC [10],MIC [12],"MIC [13, 24]","MIC [14, 25]",MIC [15],MIC ([16]; Escherichia coli),MIC [17],"MIC [11, 26]","MIC [18, 27]",MIC ([8]; Staphylococcus),further results
O=C(O)CSc1nnc(SCC2=C(C(=O)O)N3C(=O)[C@@H](NC(=O)[C@H](NC(=O)c4csccc4=O)c4ccccc4)[C@H]3SC2)s1 [Example 10],1.56 µg/mL,50 µg/mL,0.19 µg/mL,3.13 µg/mL,< 0.09 µg/mL,0.39 µg/mL,< 0.09 µg/mL,3.13 µg/mL,0.39 µg/mL,50 µg/mL,25 µg/mL,3.13 µg/mL,0.19 µg/mL,3.13 µg/mL,6.25 µg/mL,0.39 µg/mL,,,,MIC ([11]; Shigella sonnei): 6.25 µg/mL; MIC ([18]; Shigella flexneri): 1.56 µg/mL
"CC(C)(Sc1nnc(SCC2=C(C(=O)O)N3C(=O)[C@@H](NC(=O)[C@H](NC(=O)c4cnccc4O)c4ccccc4)[C@H]3SC2)s1)C(=O)O [Example 22, 7-[D-α-(4-hydroxynicotinoylamido)-α-phenylacetamido]-3-[5-(1-carboxy-1-methylethylthio)-1,3,4-thiadiazol-2-yl]thiomethyl-Δ^3-cephem-4-carboxylic acid]",3.13 µg/mL,6.25 µg/mL,0.78 µg/mL,6.25 µg/mL,0.19 µg/mL,,,12.5 µg/mL,0.39 µg/mL,12.5 µg/mL,12.5 µg/mL,6.25 µg/mL,0.78 µg/mL,12.5 µg/mL,3.13 µg/mL,0.39 µg/mL,3.13 µg/mL,1.56 µg/mL,,"MIC ([6]; Staphylococcus aureus, 209P): 1.56 µg/mL; MIC ([7]; Proteus vulgaris): 1.56 µg/mL"
"O=C(O)C1=C(CSc2nnc(SCCS(=O)(=O)O)s2)CS[C@@H]2[C@H](NC(=O)[C@H](NC(=O)c3cnccc3O)c3ccccc3)C(=O)N12 [Example 9, 7-[D-α-(4-hydroxynicotinoylamido)-α-phenylacetamido]-3-(5-sulfoethylthio-1,3,4-thiadiazol-2-yl)thiomethyl-Δ^3-cephem-4-carboxylic acid]",1.56 µg/mL,12.5 µg/mL,0.39 µg/mL,3.13 µg/mL,0.19 µg/mL,0.78 µg/mL,0.39 µg/mL,,0.39 µg/mL,12.5 µg/mL,12.5 µg/mL,3.13 µg/mL,,3.13 µg/mL,3.13 µg/mL,0.39 µg/mL,6.25 µg/mL,1.56 µg/mL,6.25 µg/mL,"remaining at 0.25 h ([19]; 10% liver homogenate, 15 minute, read-out: Residual activity): 100%; remaining at 0.5 h ([19]; 10% liver homogenate, 30 minute, read-out: Residual activity): 100%; remaining at 1.5 h ([19]; 10% liver homogenate, 90 minute, read-out: Residual activity): 102%; Residual activity ([19]; 0 minute): 100%; MIC ([14]; ENTERITIDIS): 0.39 µg/mL; remaining at 0.25 h ([20]; 90% plasma, 15 minute): 103%; remaining at 0.5 h ([20]; 90% plasma, 30 minute): 92%; remaining at 1.5 h ([20]; 90% plasma, 90 minute): 100%; Residual activity ([20]; 0 minute): 100%"
"O=C(O)CCC(=O)Nc1nnc(SCC2=C(C(=O)O)N3C(=O)[C@@H](NC(=O)[C@H](NC(=O)c4csccc4=O)c4ccccc4)[C@H]3SC2)s1 [Example 1, 7-[D-α-(4-oxo-4H-thiopyran-3-ylcarboxamido)-α-phenylacetamido]-3-[5-(3-carboxypropionylamino)-1,3,4-thiadiazol-2-yl]thiomethyl-Δ^3-cephem-4-carboxylic acid]",1.56 µg/mL,50 µg/mL,0.39 µg/mL,3.13 µg/mL,0.19 µg/mL,0.78 µg/mL,0.19 µg/mL,,0.78 µg/mL,25 µg/mL,25 µg/mL,,0.78 µg/mL,3.13 µg/mL,,0.78 µg/mL,25 µg/mL,6.25 µg/mL,6.25 µg/mL,"MIC ([13]; Klebsiella pneumoniae): 6.25 µg/mL; MIC ([16]; (7) Escherichia coli kauffmann 0-1, read-out: MIC): 25 µg/mL"
